Measurements reported in ChEMBL document CHEMBL3885861, “Open TG-GATES”.

Organism: Rattus norvegicus
Test: Open TG-GATES - Regimen: Single
Type: toxicity, organism-based, Sprague-Dawley
Parameters: regimen Single, gender Male, age 6 weeks
Details: in vivo, po, 300 mg/kg, route gavage, dose level Middle; for APTT / Bas / Eos / Fbg / Hb / Ht / Lym / MCH / MCHC / MCV / Mono / Neu / PT / Plat / RBC / Ret / WBC: tissue Blood; for KIDNEY_L / KIDNEY_R / KIDNEY_TOTAL: tissue Kidney; for LIVER: tissue Liver; for A/G / ALP / ALT / AST / BUN / CRE / Ca / Cl / DBIL / GLC / IP / LDH / Na / PL / RALB / TBIL / TC / TG / TP / gamma-GTP: tissue Plasma

For `NC(N)=Nc1nc(CSCCC(N)=NS(N)(=O)=O)cs1` [FAMOTIDINE], the TERMINAL_BW (3 h) was 215.2 g, the APTT (3 h) was 21.3 s and the Bas (3 h) was 0%. The Eos (3 h) was 1%, the Fbg (3 h) was 213.2 mg/dL and the Hb (3 h) was 13.4 g/dL. It also gave a Ht (3 h) of 37.9%, a Lym (3 h) of 76.2% and an MCH (3 h) of 22.4 pg. The MCHC (3 h) was 35.3%, the MCV (3 h) was 63.4 fL and the Mono (3 h) was 2.8%. For the same compound, the Neu (3 h) was 17.8%, the PT (3 h) was 12.6 s and the Plat (3 h) was 116.7 x10_4/uL. It also gave an RBC (3 h) of 598 x10_4/ul, a Ret (3 h) of 7.6% and a WBC (3 h) of 82 x10_2/uL. The KIDNEY_L (3 h) was 1 g, the KIDNEY_R (3 h) was 1 g and the KIDNEY_TOTAL (3 h) was 1.9 g. It also gave an LIVER (3 h) of 10.1 g, an A/G (3 h) of 1.6 and an ALP (3 h) of 814.6 IU/L. The ALT (3 h) was 34.2 IU/L, the AST (3 h) was 66.4 IU/L and the BUN (3 h) was 9.6 mg/dL. The CRE (3 h) was 0.4 mg/dL, the Ca (3 h) was 10.6 mg/dL and the Cl (3 h) was 104.2 meq/L. It also gave a DBIL (3 h) of 0.07 mg/dL, a GLC (3 h) of 197.8 mg/dL and an IP (3 h) of 9 mg/dL. It also gave an LDH (3 h) of 230 IU/L, a Na (3 h) of 140.8 meq/L and a PL (3 h) of 146 mg/dL. For the same compound, the RALB (3 h) was 3.4 g/dL, the TBIL (3 h) was 0.1 mg/dL and the TC (3 h) was 77.2 mg/dL. It also gave a TG (3 h) of 69.4 mg/dL, a TP (3 h) of 5.5 g/dL and a gamma-GTP (3 h) of 1.2 IU/L. For the same compound, the TERMINAL_BW (6 h) was 211.7 g, the APTT (6 h) was 18.9 s and the Bas (6 h) was 0%. The Eos (6 h) was 1%, the Fbg (6 h) was 204.6 mg/dL and the Hb (6 h) was 13.5 g/dL. It also gave a Ht (6 h) of 37.8%, a Lym (6 h) of 75% and an MCH (6 h) of 22.3 pg. It also gave an MCHC (6 h) of 35.6%, an MCV (6 h) of 62.7 fL and a Mono (6 h) of 2.4%. It also gave a Neu (6 h) of 18.4%, a PT (6 h) of 12.8 s and a Plat (6 h) of 109.6 x10_4/uL. It also gave an RBC (6 h) of 604.4 x10_4/ul, a Ret (6 h) of 7.4% and a WBC (6 h) of 97.9 x10_2/uL. It also gave a KIDNEY_L (6 h) of 1 g, a KIDNEY_R (6 h) of 0.9 g and a KIDNEY_TOTAL (6 h) of 1.9 g. The LIVER (6 h) was 9 g, the A/G (6 h) was 1.6 and the ALP (6 h) was 896.8 IU/L. It also gave an ALT (6 h) of 32.8 IU/L, an AST (6 h) of 66.8 IU/L and a BUN (6 h) of 8.4 mg/dL. For the same compound, the CRE (6 h) was 0.4 mg/dL, the Ca (6 h) was 10.4 mg/dL and the Cl (6 h) was 103.8 meq/L. For the same compound, the DBIL (6 h) was 0.07 mg/dL, the GLC (6 h) was 195 mg/dL and the IP (6 h) was 9 mg/dL. It also gave an LDH (6 h) of 177.2 IU/L, a Na (6 h) of 140.8 meq/L and a PL (6 h) of 131.2 mg/dL. For the same compound, the RALB (6 h) was 3.2 g/dL, the TBIL (6 h) was 0.1 mg/dL and the TC (6 h) was 73.2 mg/dL. For the same compound, the TG (6 h) was 46.2 mg/dL, the TP (6 h) was 5.2 g/dL and the gamma-GTP (6 h) was 2 IU/L. For the same compound, the TERMINAL_BW (9 h) was 209.6 g, the APTT (9 h) was 18.9 s and the Bas (9 h) was 0%. It also gave an Eos (9 h) of 0.8%, a Fbg (9 h) of 225.4 mg/dL and a Hb (9 h) of 13.4 g/dL. For the same compound, the Ht (9 h) was 37.4%, the Lym (9 h) was 76.8% and the MCH (9 h) was 22.3 pg. For the same compound, the MCHC (9 h) was 35.7%, the MCV (9 h) was 62.3 fL and the Mono (9 h) was 2.4%. The Neu (9 h) was 19.2%, the PT (9 h) was 12.1 s and the Plat (9 h) was 117.6 x10_4/uL. The RBC (9 h) was 601.6 x10_4/ul, the Ret (9 h) was 7.2% and the WBC (9 h) was 77.6 x10_2/uL. It also gave a KIDNEY_L (9 h) of 0.9 g, a KIDNEY_R (9 h) of 1 g and a KIDNEY_TOTAL (9 h) of 1.9 g. It also gave an LIVER (9 h) of 8.7 g, an A/G (9 h) of 1.6 and an ALP (9 h) of 898 IU/L. It also gave an ALT (9 h) of 26.6 IU/L, an AST (9 h) of 59 IU/L and a BUN (9 h) of 10 mg/dL. It also gave a CRE (9 h) of 0.4 mg/dL, a Ca (9 h) of 10.3 mg/dL and a Cl (9 h) of 103.6 meq/L. The DBIL (9 h) was 0.064 mg/dL, the GLC (9 h) was 195.2 mg/dL and the IP (9 h) was 8.8 mg/dL. It also gave an LDH (9 h) of 125 IU/L, a Na (9 h) of 140.2 meq/L and a PL (9 h) of 130 mg/dL. The RALB (9 h) was 3.3 g/dL, the TBIL (9 h) was 0.1 mg/dL and the TC (9 h) was 67.8 mg/dL. The TG (9 h) was 47.6 mg/dL, the TP (9 h) was 5.4 g/dL and the gamma-GTP (9 h) was 0.6 IU/L. The TERMINAL_BW (24 h) was 227 g, the APTT (24 h) was 20.8 s and the Bas (24 h) was 0%. For the same compound, the Eos (24 h) was 1%, the Fbg (24 h) was 225.8 mg/dL and the Hb (24 h) was 13.4 g/dL. It also gave a Ht (24 h) of 37.6%, a Lym (24 h) of 78.2% and an MCH (24 h) of 22.4 pg. It also gave an MCHC (24 h) of 35.6%, an MCV (24 h) of 63.1 fL and a Mono (24 h) of 3.8%. It also gave a Neu (24 h) of 15.6%, a PT (24 h) of 12.1 s and a Plat (24 h) of 114.2 x10_4/uL. It also gave an RBC (24 h) of 596.2 x10_4/ul, a Ret (24 h) of 6.6% and a WBC (24 h) of 78.3 x10_2/uL. It also gave a KIDNEY_L (24 h) of 1 g, a KIDNEY_R (24 h) of 1 g and a KIDNEY_TOTAL (24 h) of 2 g. For the same compound, the LIVER (24 h) was 11 g, the A/G (24 h) was 1.5 and the ALP (24 h) was 1146.8 IU/L. For the same compound, the ALT (24 h) was 33.2 IU/L, the AST (24 h) was 62.8 IU/L and the BUN (24 h) was 13.2 mg/dL. For the same compound, the CRE (24 h) was 0.4 mg/dL, the Ca (24 h) was 10.5 mg/dL and the Cl (24 h) was 103.6 meq/L. The DBIL (24 h) was 0.074 mg/dL, the GLC (24 h) was 194.2 mg/dL and the IP (24 h) was 8 mg/dL. For the same compound, the LDH (24 h) was 176.6 IU/L, the Na (24 h) was 140.6 meq/L and the PL (24 h) was 153 mg/dL. The RALB (24 h) was 3.3 g/dL, the TBIL (24 h) was 0.1 mg/dL and the TC (24 h) was 82.8 mg/dL. For the same compound, the TG (24 h) was 86.8 mg/dL, the TP (24 h) was 5.6 g/dL and the gamma-GTP (24 h) was 0.8 IU/L.
